Reference: ChEMBL document CHEMBL4038315, “Identification of Peptidic Antagonists of Vascular Endothelial Growth Factor Receptor 1 by Scanning the Binding Epitopes of Its Ligands” (J Med Chem, 2017)
The source made the active and inactive calls. No cut-off for these calls is given here. Positions of bridges follow the written chain, without caps; N, C: chain ends. Residues, ends and D or L forms follow the SMILES beside them.

The compounds below were run on HUVEC. Conditions: Homo sapiens, 50 uM.
Description: Antiangiogenic activity in HUVEC assessed as inhibition of VEGF-A-induced tube formation at 50 uM preincubated for 15 mins prior to VEGF-A addition measured after 4 hrs by matrigel assay
For CSCC[C@@H]1NC(=O)[C@H](CC(C)C)NC(=O)[C@H](CCC(=O)O)NC(=O)[C@H](C(C)C)NC(=O)[C@H]([C@@H](C)O)NC(=O)[C@@H](NC(C)=O)CSSC[C@@H](C(N)=O)NC(=O)[C@@H]2CCCN2C(=O)[C@H](C(C)C)NC(=O)[C@H](CC(C)C)NC(=O)[C@H](CCC(N)=O)NC(=O)[C@H](CCCCN)NC(=O)[C@H](C)NC(=O)[C@H](C(C)C)NC(=O)[C@H]([C@@H](C)O)NC(=O)CNC1=O (Ac-CTVELMGTVAKQLVPC-NH2; disulfide 1-16), the inhibition was “Active”. For CC[C@H](C)[C@@H]1NC(=O)[C@H](Cc2ccc(O)cc2)NC(=O)[C@H](CCC(=O)O)NC(=O)[C@H]([C@@H](C)CC)NC(=O)[C@H](CCC(=O)O)NC(=O)[C@H](CC(=O)O)NC(=O)[C@@H]2CCCN2C(=O)[C@H](Cc2ccc(O)cc2)NC(=O)[C@H](CCC(=O)O)NC(=O)[C@H](CCC(N)=O)NC(=O)[C@H](Cc2ccccc2)NC(=O)[C@@H](N)CSSC[C@@H](C(=O)N[C@@H](CCCCN)C(N)=O)NC1=O (H-CFQEYPDEIEYICK-NH2; disulfide 1-13), the inhibition was “Active”. For CC[C@H](C)[C@@H]1NC(=O)[C@H](Cc2ccc(O)cc2)NC(=O)[C@H](CCC(=O)O)NC(=O)[C@H]([C@@H](C)CC)NC(=O)[C@H](CCC(=O)O)NC(=O)[C@H](CC(=O)O)NC(=O)[C@@H]2CCCN2C(=O)[C@H](Cc2ccc(O)cc2)NC(=O)[C@H](CCC(=O)O)NC(=O)[C@H](CCC(N)=O)NC(=O)[C@@H](N)CSSC[C@@H](C(=O)N[C@@H](CCCCN)C(N)=O)NC1=O (H-CQEYPDEIEYICK-NH2; disulfide 1-12), the inhibition was “Active”.
